For test [1], the target named is human RORγ receptor (GST-tagged ROR gamma ligand binding domain) (Homo sapiens (Human), UniProt P51449). Nature of the test: TR-FRET assay for ROR gamma (Lantha Screen co-activator peptide recruitment). Format: biochemical. Conditions: 10 nM GST-tagged ROR gamma LBD, read-out: IC50 value for inhibiting human RORγ receptor activity. The source says: The compounds described herein were screened for RORγ inhibitor activity using the TR-FRET assay by Lantha Screen as described in JBC 2011, 286, 26: 22707-10; and Drug Metabolism and Disposition 2009, 37, 10: 2069-78
TR-FRET Assay for ROR Gamma:
The assay is based on the principle that binding of the agonist to the RORγ causes a conformational change around helix 12 in the ligand binding domain, resulting in higher affinity for the co-activator peptide. The Fluorescein-D22 co-activator peptide used in the assay is recruited in the absence of a ligand. Binding of the co-activator peptide, causes an increase in the TR-FRET signal while binding of an inhibitor decreases the recruitment of the co-activator peptide, causing a decrease in the TR-FRET signal compared to a control with no test compound. The assay was performed using a two-step procedure, pre-incubation step with the test compound followed by the detection step on addition of the anti-GST tagged terbium (Tb) and fluorescein tagged fluorophores as the acceptor.
Test compounds or reference compounds such as T0901317 (Calbiochem) were dissolved in dimethylsulfoxide (DMSO) to prepare 10.0 mM stock solutions and diluted to the desired concentration. The final concentration of DMSO in the reaction was 4% (v/v). The assay mixture was prepared by mixing 10 nM of the GST-tagged ROR gamma ligand binding domain (LBD) in the assay buffer containing 25 mM HEPES (pH 7.4), 100 mM NaCl, 5 mM DTT and 0.01% BSA with or without the desired concentration of the test compound. The reaction was incubated at 22° C. for 1 hour. The pre-incubation step was terminated by addition of the detection mixture containing 300 nM Fluorescein-D22 co-activator peptide and 10 nM lantha screen Tb-anti GST antibody into the reaction mixture. After shaking for 5 minutes the reaction was further incubated for 1 hour at room temperature and read at 4° C. on an Infinite F500 reader as per the kit instructions (Invitrogen). The inhibition by test compound was calculated based on the TR-FRET ratio of 520/495. The activity was calculated as a percent of the control reaction. IC50 values were calculated from dose response curve by nonlinear regression analysis using GraphPad Prism software.

The subject of test [2] is cigarette smoke (CS) induced pulmonary inflammation model in male C57BL6/J mice. The experiment in a line: Cigarette smoke (CS) induced pulmonary inflammation model, 7 days exposure, BAL cell count. The test is classed as in vivo. Conditions: i.n., od, 7 days CS exposure; for CS mediated increase in macrophages in BALf / CS mediated increase in neutrophils in BALf / CS mediated increase in total leukocyte count (TLC) in BALf: BAL 20 hours after last smoke exposure. Here is the method:
Male C57BL/6 mice were exposed alternately to cigarette smoke (10 Kentucky Research Cigarettes 3R4F) and fresh air for 50 minutes (10 seconds cigarette smoke+5 seconds air for 19 puffs per cigarette) twice daily for 7 days in a whole-body box exposure system (SIU24, ProMech Lab Holding AB, Sweden). Test compounds were sonicated in 1×PBS containing 0.005% tween 80. For localized delivery to lung, animals were administered vehicle or test compounds intranasally (i.n.) (40 μl per animal) under isoflurane anaesthesia, once or twice in a day, 1 hour before smoke exposure. Non-drug-treated air and smoked control animals were given vehicle before exposure to fresh air or smoke as appropriate. Animals were sacrificed 20 hours after the last smoke exposure and subjected to bronchoalveolar lavage (BAL). Total and differential BAL cell count was performed.
BAL was performed at approximately 20 hours after final smoke exposure. Animals were euthanized with an overdose of urethane, trachea was exposed and BAL was performed 4 times using 0.3 ml PBS. All aspirates of BAL were pooled and total numbers of cells were determined using a hemocytometer. BALf was centrifuged. The cell pellet collected after centrifugation was resuspended in 15 μL serum and used for preparation of smears.
For cell differentials, slides were stained with Leishman's stain and a differential cell count of 500 cells based on standard morphology was performed manually.
Total and differential cell count was determined in the BALf. The results were expressed as percent inhibition of leukocytes in BALf. The change in the treatments was statistically evaluated by ANOVA followed by Dunnett's multiple comparisons test.

Test [3] relates to anti CD2/3/28 stimulated IL-17 release from COPD lung BAL cells. Nature of the test: Ex-vivo IL-17 inhibition from BAL cells of COPD patients. The test is classed as cell-based, human. The conditions noted are these: for IC50: average over patients, 72 hrs. The procedure: (§1) Ex vivo effect of ROR γt inhibitors were evaluated on tissue samples of eligible subjects suffering from moderate (Stage II), severe (Stage III) to very severe (Stage IV) COPD classified in accordance with GOLD guidelines.
Flexible fiber optic bronchoscopy was performed on 6 eligible subjects (COPD patients) after written valid consent and lignocaine nebulization. Bronchoscope was wedged into bronchus, pre-warmed sterile saline solution instilled into the lobes and bronchoalveolar lavage was collected in sterile container on ice. The filtrate was passed through the cell strainer for removing the particulate matter and centrifuged at 2000 rpm for 10 mins. The BAL cell pellet obtained was further treated with ACK buffer to lyse out the RBCs. Isolated BAL cells per suspended in 10% FBS containing medium.
(§2) PBMCs or BAL cells were seeded at 1-2×10^5 cells per well onto 96-well flat bottomed plates pre-coated with 2 μg/ml of CD2 antibody (LEAF Purified, Biolegend, #300212) and 10 μg/ml of CD3 antibody (Purified NA/LE, BD, #555329). This was followed by the pre-treatment with compounds (concentrations ranging from 1 nM to 10 uM) and roflumilast for one hour prior to addition of 2 μg/ml of soluble CD28 antibody (LEAF purified, Biolegend, #302914). BAL cells and PBMC were then incubated at 37° C. for 72 hrs in 5% CO2 incubator, after which supematants were collected and stored at −80° C. prior to cytokine analysis.
(§3) Supematants were analysed for IL-17A using either the High Sensitivity ELISA (eBioscience), or the LEGEND MAX™ ELISA kit (Biolegend) according to the manufacturer's instructions.
(§4) IL-17 cytokine concentrations in the supematants were determined from the standard curve plot. Percent inhibition for each set treated with compound was calculated using the formula: Percent inhibition={100−(pg/ml of test compound/pg/ml of control×100)}. IC50 values were calculated from the dose response curves by nonlinear regression analysis using GraphPad Prism Software. Results

Test [4] deals with anti CD2/3/28 stimulated IL-17 release from PBMC of COPD patients. The experiment in a line: Ex-vivo IL-17 inhibition from PBMCs of COPD patients. The test is classed as cell-based, human. The conditions noted are these: for IC50: average over patients, 72 hrs. The procedure:
as §1
Blood was collected in a heparin tube prior to bronchoscopy. 1:1 diluted blood was layered over Histopaque and centrifuged at 400 g, 30 min, at room temperature. The PBMC layer at the interface was aspirated and washed twice with PBS prior to re-suspension in 10% FBS containing media.
as §2, §3, §4

Chain of human RORγ receptor (GST-tagged ROR gamma ligand binding domain) (P51449 269-508): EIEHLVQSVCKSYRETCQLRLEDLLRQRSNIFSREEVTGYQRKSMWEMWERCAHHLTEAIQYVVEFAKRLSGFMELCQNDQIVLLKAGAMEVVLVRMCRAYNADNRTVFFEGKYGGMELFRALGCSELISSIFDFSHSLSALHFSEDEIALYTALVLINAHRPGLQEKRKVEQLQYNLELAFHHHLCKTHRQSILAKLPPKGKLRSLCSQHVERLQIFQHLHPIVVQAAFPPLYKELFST

On to `CCS(=O)(=O)c1ccc(CC(=O)Nc2ccc(C#CC(C)(C)Oc3ccc(Cl)c(F)c3)cc2)cc1` [Compound 5], for which, in test [1], the IC50 (usually the concentration needed to halve the response being measured) is 17.4 nM.

With `CCS(=O)(=O)c1ccc(CC(=O)Nc2ccc(OC(C)(C)c3ccc(Cl)cc3Cl)cc2)cc1` [Compound 3], in test [2], the “inhibition of pulmonary inflammation induced by cigarette smoke” value is given as “significant inhibition”, the “CS mediated increase in macrophages in BALf” value was “significantly prevented”, the “CS mediated increase in neutrophils in BALf” value is recorded as “significantly prevented” and the “CS mediated increase in total leukocyte count (TLC) in BALf” value is reported as “significantly prevented”. Besides, the IC50 in test [1] was 5.52 nM.

For `CCS(=O)(=O)c1ccc(CC(=O)Nc2ccc(OC(C)(C)c3ncc(Cl)cc3Cl)c(F)c2)cc1` [Compound 11], the IC50 in test [1] turned out to be 25.7 nM; in test [3], 2700 nM; in test [4] it was 84 nM.

As for `O=C(Nc1c(Cl)cncc1Cl)c1ccc(OC(F)F)c(OCC2CC2)c1` [Roflumilast, reference compound], the inhibition (usually the change of the read-out against control, counted positive when it falls) at 10 µM in test [3] (Homo sapiens, at 10 μM, read-out: BAL IL-17 percent inhibition) was 6.75%; in test [4] (Homo sapiens, at 10 μM, read-out: PBMC IL-17 percent inhibition), 20.2%.

For `CCS(=O)(=O)c1ccc(CC(=O)Nc2ccc(OC(C)(C)c3ccc(Cl)cc3Cl)c(F)c2)cc1` [Compound 4], the IC50 in test [1] is 5.99 nM.

Take `CCS(=O)(=O)c1ccc(CC(=O)Nc2ccc(OC3(c4ccc(Cl)cc4Cl)CCOCC3)cc2)cc1` [Compound 9]: in test [2], the “inhibition of pulmonary inflammation induced by cigarette smoke” value is reported as “significant inhibition”, the “CS mediated increase in macrophages in BALf” value was “significantly prevented”, the “CS mediated increase in neutrophils in BALf” value is listed as “significantly prevented” and the “CS mediated increase in total leukocyte count (TLC) in BALf” value is listed as “significantly prevented”. Further, the IC50 in test [1] was 18.4 nM. In test [3] (Homo sapiens), the IC50 stood at 2390 nM. In test [4] (Homo sapiens), this compound yielded an IC50 of 360 nM.

For `CCS(=O)(=O)c1ccc(CC(=O)Nc2ccc(OC3(c4ccc(Cl)cc4Cl)CCOCC3)c(F)c2)cc1` [Compound 10], the IC50 in test [1] was 16.2 nM; in test [3], 720 nM; in test [4], 367 nM.

In the case of `CCn1c(C(C)(C)Oc2ccc(F)cc2F)nc2cc(NC(=O)Cc3ccc(S(=O)(=O)CC)cc3)ccc21` [Compound 1], the IC50 in test [1] stood at 4.26 nM; in test [3] (Homo sapiens), 350 nM; in test [4] (Homo sapiens), 147 nM.

For the origin of these results see patent publication US9855229B2, “Treatment of respiratory disorders using ROR-gamma inhibitors” (Glenmark Pharmaceuticals S.A., priority 2015, dated 2018).
